These are literature values, as cited in patent US8541630B2, “Process for producing dimethyl ether from methanol” (China Petroleum & Chemical Corporation, priority 2008, dated 2013).

Like-named read-outs stand apart in the source and are kept apart here.

For the molecule `COC` [DME, Dimethyl ether], the Solubility reads like this: (solvent Acetone (25° C.)) 11.83 wt %; (solvent Benzene (25° C.)) 15.29 wt %; (solvent CCl4 (25° C.)) 16.33 wt %; (solvent Chlorobenzene (106 kPa, 25° C.)) 18.56 wt %; (solvent Gasoline, 0° C.) 19 wt %; (solvent Gasoline, 25° C.) 7 wt %. Moreover, the Solubility by setting is: (solvent Gasoline, −40° C.) 64 wt %; (solvent Methyl acetate (93.86 kPa, 25° C.)) 11.1 wt %; (solvent Water (24° C.)) 35.3 wt %.
